Assay: Moisture loss or gain of filled capsules exposed to a 50% RH environment until equilibrium
Assay type: physicochemical
Settings: 50% R.H. environment
Protocol: An alternative method for evaluating the level of water required to provide a stable hygroscopic formulation involves the preparation of capsules containing different water contents and then quantifying moisture loss or gain when exposed to a 50% RH environment (middle of acceptable RH range for capsules 35% RH to 65% RH). Maltitol, a sugar which is also a hygroscopic excipient, was dissolved in water to produce several aqueous maltitol solutions of concentration 16, 18, 20, 22, 24, 26, 28, 30, 32, 34 and 36% water in maltitol. Both gelatin and HPMC capsules were filled with the various concentrations of solution and the capsules were sealed by banding. The capsules were then exposed to a 50% R.H environment and allowed the capsules to re-equilibrate.
Weight loss (and water loss) ceased when the capsules shell content was in equilibrium with the capsule shell and with the 50% R.H. environment. The equilibrium water content in maltitol that produced stables capsules was approximately 14% water content for gelatin capsules and approximately 13% water content for HPMC capsules.

equilibrium water content in maltitol that produced stable capsules (HPMC capsules): approximately 13% | equilibrium water content in maltitol that produced stable capsules (gelatin capsules): approximately 14%
Structure (SMILES): OC[C@@H](O)[C@@H](O[C@H]1O[C@H](CO)[C@@H](O)[C@H](O)[C@H]1O)[C@H](O)[C@@H](O)CO [maltitol, Maltitol]
